# What was measured:
# [1] = Antiproliferative activity against human WM3629 cells; format: functional
# HCT-116 = experiment: Antiproliferative activity against human HCT116 cells; format: functional, cell-based
# MCF7 [2] = experiment: Antiproliferative activity against human MCF7 cells; format: functional, cell-based
# Cytochrome P450 26A1 = biological target: T1, Cytochrome P450 26A1 (Homo sapiens, UniProt O43174); experiment: Inhibition of CYP26A1 (unknown origin)
# T1 sequence (O43174 whole entry): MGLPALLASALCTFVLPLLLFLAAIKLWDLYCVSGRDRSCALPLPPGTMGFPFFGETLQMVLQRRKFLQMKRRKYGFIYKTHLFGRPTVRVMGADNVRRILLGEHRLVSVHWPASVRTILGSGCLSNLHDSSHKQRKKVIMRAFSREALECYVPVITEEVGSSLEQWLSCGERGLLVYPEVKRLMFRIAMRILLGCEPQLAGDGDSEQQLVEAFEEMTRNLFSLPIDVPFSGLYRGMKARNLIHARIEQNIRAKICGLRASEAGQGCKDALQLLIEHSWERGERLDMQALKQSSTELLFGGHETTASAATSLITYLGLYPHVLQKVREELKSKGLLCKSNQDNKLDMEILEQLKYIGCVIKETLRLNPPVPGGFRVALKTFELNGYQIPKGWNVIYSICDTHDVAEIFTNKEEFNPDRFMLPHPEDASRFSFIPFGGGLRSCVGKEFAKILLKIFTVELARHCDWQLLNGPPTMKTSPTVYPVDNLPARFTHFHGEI
# HeLa [3] = experiment: Antiproliferative activity against human HeLa cells after 72 hrs by MTT assay; format: functional, cell-based
# LS180 = experiment: Antiproliferative activity against human LS180 cells after 72 hrs by MTT assay; format: functional, cell-based; conditions: LS180, 72 h
# MCF7 [4] = experiment: Antiproliferative activity against human MCF7 cells after 72 hrs by MTT assay; format: functional, cell-based; conditions: MCF7, 72 h
# Jurkat = experiment: Antiproliferative activity against human Jurkat cells after 72 hrs by MTT assay; format: functional, cell-based
# NUGC-3 = experiment: Antiproliferative activity against human NUGC3 cells after 72 hrs by MTT assay; format: functional, cell-based; conditions: NUGC-3, 72 h
# P388 [5] = experiment: Antitumor activity against mouse P388 cells implanted in DBA/2J mouse assessed as increase in mouse life span at 200 mg/kg/day, po for 4 consecutive days relative to control; format: functional
# A549 = experiment: Antiproliferative activity against human A549 cells; format: functional, cell-based
# HeLa [6] = experiment: Antiproliferative activity against human HeLa cells; format: functional, cell-based
# A-431 = experiment: Antitumor activity against human A431 cells xenografted in athymic mouse assessed as tumor growth inhibition at 25 mg/kg relative to control; format: functional; conditions: read-out: TGI
# P388 [7] = experiment: Antitumor activity against mouse P388 cells implanted in DBA/2J mouse assessed as increase in mouse life span at 5 mg/kg, iv relative to control; format: functional
structure (smiles),measurement,setting,value
C[C@H](O)CNc1nccc(-n2ccnc2-c2cccc(NC(=O)Nc3ccc(Cl)c(Cl)c3)c2)n1,GI50,[1],0.65 µM
CS(=O)(=O)c1nc2cc(Cl)c(Cl)cc2n1C1CCCC1,IC50,HCT-116,0.6 µM
same,IC50,MCF7 [2],0.6 µM
COC(=O)C(C)(C)C(c1ccc(Nc2ccc3ccccc3c2)cc1)n1ccnc1 (stereo unspecified),IC50,Cytochrome P450 26A1,0.03 µM
C[S+]([O-])c1nc2cc(Cl)c(Cl)cc2n1C1CCCC1 (stereo unspecified),IC50,HCT-116,0.5 µM
same,IC50,MCF7 [2],0.5 µM
CC1CC(=O)C2=C(C1)N(c1ccccc1)C1=C(C(=O)c3ccccc31)C2c1nc(Cl)c(Cl)[nH]1 (stereo unspecified),IC16,HeLa [3],10.7 µM
same,IC50,HeLa [3],59 µM
same,IC16,LS180,19.4 µM
same,IC50,LS180,> 100 µM
same,IC16,MCF7 [4],13.6 µM
same,IC50,MCF7 [4],77.1 µM
same,IC16,Jurkat,1.7 µM
same,IC50,Jurkat,95.8 µM
O=C1CCCc2nc3c(c(-c4ncc[nH]4)c21)C(=O)c1ccccc1-3,IC16,HeLa [3],> 100 µM
same,IC50,HeLa [3],> 100 µM
same,IC16,LS180,> 100 µM
same,IC50,LS180,> 100 µM
same,IC16,MCF7 [4],> 100 µM
same,IC50,MCF7 [4],> 100 µM
same,IC16,Jurkat,1.7 µM
same,IC50,Jurkat,70.9 µM
CC1CC(=O)C2=C(C1)NC1=C(C(=O)c3ccccc31)C2c1ncc([N+](=O)[O-])n1C (stereo unspecified),IC16,HeLa [3],9.2 µM
same,IC50,HeLa [3],> 25 µM
same,IC16,LS180,12.5 µM
same,IC50,LS180,> 25 µM
same,IC16,MCF7 [4],> 25 µM
same,IC50,MCF7 [4],> 25 µM
same,IC16,Jurkat,0.7 µM
same,IC50,Jurkat,> 25 µM
Nc1nc(-c2cccs2)cn1-c1nc(-c2ccccc2)cs1,IC50,NUGC-3,0.05 µM
same,ILS at 200 mg/kg/day,P388 [5],75%
COc1ccc(-c2sc3nc(-c4ccc(F)cc4)c(C(=O)c4cccnc4)n3c2-c2ccc(OC)cc2)cc1,IC50,A549,0.64 µM
Cc1nc2cc(Cl)c(Cl)cc2n1C1CCCC1,IC50,HCT-116,3 µM
same,IC50,MCF7 [2],40 µM
CCCCCCCn1c(CCCC)nc(Cl)c1-c1nc2ccccc2[nH]1,IC50,HeLa [6],25.3 µM
COc1ccc(Cc2[nH]c(=N)n(C)c2Cc2ccc(O)cc2)cc1 [NAAMINE A],inhibition in vivo at 25 mg/kg,A-431,85%
C[C@H](O)CNc1nccc(-n2ccnc2-c2cccc(NC(=O)c3ccc(Cl)c(C(F)(F)F)c3)c2)n1,GI50,[1],0.62 µM
CNC(=O)c1cc(Oc2ccc(NC(=O)Nc3ccc(Cl)c(C(F)(F)F)c3)cc2)ccn1 [SORAFENIB],GI50,[1],0.78 µM
CC[C@]1(O)C[C@@H]2CN(CCc3c([nH]c4ccccc34)[C@@](C(=O)OC)(c3cc4c(cc3OC)N(C)[C@H]3[C@@](O)(C(=O)OC)[C@H](OC(C)=O)[C@]5(CC)C=CCN6CC[C@]43[C@@H]65)C2)C1 [VINBLASTINE],ILS at 5 mg/kg,P388 [7],83%
CCCCc1nc(Cl)c(-c2nc3ccccc3[nH]2)n1Cc1cccc(C)c1,IC50,HeLa [6],30.2 µM

# Source: ChEMBL document CHEMBL4261505, “Imidazoles as potential anticancer agents” (Medchemcomm, 2017)
